The test system of series [1] is human β cells. Kind of series: TUNEL assay on sections, cytokine mediated beta cell apoptosis. The settings on record: cytokine + 1.0 μg/mL, twenty four hours, vs control. It counts as cell-based. As for the experimental part:
Islets were protected from cytokine damage by Withaferin A at both time points. Islet potency was assessed by stimulation index after 24 hours. […] Graphical representations (10E-10G) are expressed as means±STD. Significant differences between mean values groups as determined by Turkey-Kramer post-hoc tests are indicated by an asterisk (*p<0.05) above bars; and
TUNEL Assay: The TUNEL assay was performed with ApopTag® fluorescein in situ apoptosis detection kit. After deparaffinization of samples, antigen retrieval was performed with proteinase K and insulin staining was performed as described previously. Next, digoxigenin labeled nucleotides were added to DNA fragments by the enzyme terminal deoxynucelotidyl transferase (TdT) by incubation at 37° C. for 1 hour. Fluorescein labeled anti-digoxigenin antibodies are bound to the digoxigenin by incubation at room temperature for 30 minutes. Lastly DAPI is stained as described above, and slides are mounted with VecataShield and visualized with fluorescent microscopy. Apoptotic cells are counted as those that appear fluorescently green in the nuclei of insulin positive cells. All nuclei of insulin positive cells were counted and percentage of TUNEL^+ cells was calculated as number of TUNEL positive nuclei divided by the total number of insulin positive beta cells. At least 300 nuclei were counted for each condition. […]

Series [2] in a line: In vivo intraportal syngeneic islet transplant in STZ diabetic mice. On the set-up: species or system C57BL/6 mice.
Method: Intraperitoneal glucose tolerance test was performed on day 30 post transplant to assess glycemic control of Withaferin A-treated and vehicle-treated (11E) mice; also naïve and STZ-induced diabetic mice were challenged with glucose for comparison. After 12-14 hours of fasting, mice were injected with a 5% glucose solution (1 mg/kg body weight) and blood glucose levels were monitored at 0, 30, and 120 minutes afterwards. […] After thirty days, hepatectomy of recipient mice was performed and the liver was fixed in formalin, embedded in paraffin and stained for insulin (11F) and H&E (11G).
In-vivo Intraportal Transplant: Diabetes was induced in by injecting streptozomycin (STZ 180 mg/kg, 9 mg/mL dissolved in DPBS) into the tail vein. Accu-Chek Aviva® (Roche Diagnostics, Indianapolis, Ind.) was used to monitor blood glucose from the tail vein, and mice were considered diabetic, when their blood glucose was measured as greater than 350 dg/mL for two days in a row. Mice were anesthetized with avertin (20 mg/mL, 0.5 mL/mouse), then two hundred islets were injected into the portal vein by puncturing the portal vein through the pancreas with a 27 gauge, hypodermic needle attached to a glass syringe. The peritoneum was first closed with 5-0 black silk sutures, and before sealing this closure, Withaferin A (25 ug, 0.5 mL/mouse) or vehicle (DPBS) was injected into the peritoneal space. […]
To determine only the anti-inflammatory effects of Withaferin A on islet transplantation, a syngeneic model was used. […] It was determined that 400 islets are required for successful transplantation into the portal vein of the liver for mice.
Daily intraperitoneal injections of Withaferin A (25 μg, 0.5 mL/mouse) for seven days post-transplant beginning immediately after islet infusion were performed on six mice. […] After 12 to 14 hours of fasting, mice were injected with a 5% glucose solution (2 mg/kg body weight) and blood sugar levels were measured at zero, thirty, and one hundred twenty minutes after the injection.
Series [3] deals with IκB in human islets and β-cell lines. Kind of series: Western blotting of IκB after cytokine cocktail. In kind it is cell-based. The settings on record: cytokines 20 min.
Method: Graphical representations (6B) are expressed as means±STD. Asterisks above bars indicate statistically significant differences in mean values (*p<0.05, **p<0.01, ***p<0.001) between treatments and controls (black bars) for each cell type based on two-tailed Student's t test;
Western Blotting: Cells were treated with cytokines for 20 min, then harvested in lysis buffer containing 50 mM HEPES, pH 7.5, 150 mM NaCl, 1% Triton X-100, 0.2 mg/mL phenylmethylsulfonyl fluoride (PMSF), 0.1 M NaF, 2 mM Na3VO4, 10 μg/mL aprotinin, 5 μg/mL pepstatin A, and 5 μg/mL leupeptin. Proteins were subjected to SDS/polyacrylamide gel electrophoresis and electrotransferred to nitrocellulose membranes. Membranes were blocked with 5% milk in Tris-buffered saline containing 0.1% Tween-20 (TBST) pH 7.4 for 2 hours, incubated with primary antibody for 1 hour at 4° C., and washed three times with TBST. Primary antibodies were IkB-α (C-21) (Santa Cruz) and ERK1/2 as described.^21 Membranes were then incubated with secondary antibodies conjugated to DyLight 680 and 800 fluorescent dyes (Cell Signaling) to detect proteins using an ODYSSEY Infrared Imaging System (LI-COR).
For series [4], the system named is mouse islets. Briefly: Viability determination by Hoechst 342/PI, mouse islets. In kind it is cell-based. The settings on record: for viability of mouse islets exposed to cytokines: 24 hours (cytokines 78.1±11.6%, control 93.3±2.9%). On the procedure:
FIGS. 5A-5D show the optimal Withaferin A dosing is found without toxicity to islets: Human (5A and 5B) and mouse (5C and 5D) islets were cultured with Withaferin A. Samples were taken at 24 and 48 hours and stained with Hoechst 342 (all nuclei) and propidium iodide (necrotic nuclei). The percent viability was determined as the PI^+ area subtracted from the total area (Hoe342 stained). The optimal Withaferin A dose was determined to be 1.0 μg/mL Withaferin A for human islets (5A) and 0.5 μg/mL for mouse islets (5C). Asterisks above bars indicate statistically significant differences in mean values (*p<0.05 for 48 h and **p<0.001 for 24 and 48 hours) between controls and islets exposed to Withaferin A based on two-tailed Student's t test; N=10;
Mouse Isolation: Islets were isolated from male inbred B6 […] mice (C57BL/6N Inbred Mice, Harlan Labs). Collagenase type V (Sigma, C9263) (2 mg/mL) was injected through the common bile duct into the pancreas. Mouse pancreata were digested by incubation at 37° C. for 28 minutes. After washing, the islets were purified with a discontinuous Ficoll based gradient (1.085 g/mL, 1.077 g/mL, and Cap of DMEM) and centrifugation at 1000 rpm for 10 minutes. Purified islets were further purified in a 65 mm dish in DMEM by removing acinar cells to a purity of greater than 95%. Islets were cultured in DMEM supplemented with Kanamycin and 0.1% BSA, mouse islet culture media.
Viability Determination by Hoechst 342/PI: For immediate in vitro determination of necrosis, islets were incubated with Hoechst 342 (10 μg/mL) and propidium iodide (20 μg/mL) for 10 minutes at 37° C. before imaging via fluorescent microscopy. Fluorescent microsgraphs were merged in Image J (NIH Bethesda, Md.) and the propidium iodide positive area was divided by the Hoechst 342 positive area to provide a calculation of islet viability.

For series [5], the system named is IP-10. Briefly: Flow cytometry, intracellular IP-10 in islets. It counts as cell-based, human. The settings on record: islets treated with cytokine mix + Withaferin A (untreated 4214.15, cytokine mix 18024.08). From the text:
The IP-10 expression level was examined by flow cytometry. After treatment, islets were fixed, permeablized and aliquoted to three tubes staining with anti-IP10.
In general terms: In flow cytometry, cells or beads pass a laser one at a time.

Series [6] has as its system G-CSF, IL-2, IL-6, IL-8, IP-10, MCP-1, IL-1α, TNF-α, MIP-1α, MIP-1β secreted by human islets. Kind of series: Secreted inflammatory cytokines and chemokines (Luminex). The settings on record: 96 hours. In kind it is cell-based.
Method: Supernatant was collected and analyzed in duplicate with Millipore's human cytokine detection kit in the Luminex 200®. Results were standardized to the number of islets. Graphical representations are expressed as means±STD. Significant differences between mean values groups as determined by Turkey-Kramer post-hoc tests are indicated by an asterisk (*p<0.05) above bars;
Measurement of Secreted Inflammatory Cytokines and Chemokines: Fifty human islets were cultured in human islet culture media for 96 hours with the cytokine and Withaferin A treatment. Secretion of proinflammatory cytokines was determined by measuring cell culture supernatant in a Luminex 200 with a human inflammatory cytokine MagPlex kit (Millipore, Billerica, Mass.). The bead assay was performed according to the manufacturer's instructions with samples in duplicate.
In this study cell culture supernatants from human islets exposed to cytokines and Withaferin A was evaluated by a multiplex bead assay using Luminex® technology. The cell culture supernatant from which the samples were taken for Luminex analysis contained fifty, pure, hand-picked human islets, which had been cultured at 22° C. for over a week to decrease resident macrophage numbers that might interfere (N=10).

Each structure is given as a SMILES string.

On to `CC1=C(CO)C(=O)O[C@@H]([C@@H](C)[C@H]2CC[C@H]3[C@@H]4C[C@H]5O[C@]56[C@@H](O)C=CC(=O)[C@]6(C)[C@H]4CC[C@]23C)C1` [Withaferin A], for which the “cytokine induced β cell apoptosis (TUNEL positive staining)” value in series [1] is “totally cancel any effect of cytokines on β cell apoptosis”. Also, the “success rate (recipients achieving normoglycemia)” value in series [2] (200 islet isograft, 25 μg i.p. daily for 7 days (vehicle 0%)) was 83%. Further, in series [2] (200 islet isograft, 25 μg i.p. daily for 7 days (vehicle 0/5)), the “mice with amelioration of diabetes / mice treated” value was 5/6. In addition, the “ideal dose in the in vivo mouse model” value in series [2] (doses from 2.5 to 50 μg/mouse tested) amounted to 25 µg. The “IκB protein relative to ERK1/2 after cytokine cocktail” value in series [3] was “prevented the reduction of IκB”. Further, the “viability of mouse islets” value in series [4] (0.25 μg/mL, 48 hours, no cytokines (control 93.8±8.0%)) is 90.1±6.6%; in series [4] (0.5 μg/mL, 48 hours, no cytokines (control 93.8±8.0%)), 94.6±4.4%; in series [4] (1.0 μg/mL, no cytokines, time not printed (control 97.3±2.2%)), 87.8±11.1%. In addition, the figures for the “viability of mouse islets exposed to cytokines” value in series [4] (cytokine cocktail + 0.25 μg/mL) and in series [4] (cytokine cocktail + 0.5 μg/mL) were 89.7±5.9% and 89.9±3.6%, respectively. In addition, the “optimal Withaferin A dose without toxicity to islets” value in series [4] (mouse islets, 24 and 48 hours) was 0.5 µg/mL. The “IP-10 mean channel fluorescence” value in series [5] is 7318.94 (+/−78.21). Further, in series [6] (1.0 μg/mL, cytokines, p<0.05), the secreted inflammatory molecules result is reported as “significant decrease”. For the same compound, the “secreted levels of inflammatory cytokines and chemokines” value in series [6] (human islets, cytokines + Withaferin A) is reported as “decreased secreted levels of each molecule”.

The record behind these values is patent US8637494B2, “Method of achieving normoglycemia in diabetics by administration of Withaferin A” (priority 2010, dated 2014).
